Laboratory results published in patent US10946074B2, “GLP-1 derivatives and uses thereof” (Novo Nordisk A/S, priority 2016, dated 2021).
Read-outs that look alike come from different tables or passages of the source.

Tests used:
[1] = molecular target: T1, DPP-IV (Homo sapiens, UniProt P27487); assay: In vitro DPP-IV stability (incubation with DPP-IV, LC-MS of non-degraded peptide); type: in vitro ADME; conditions: 10 μM peptide, DPP-IV 2 μg/ml, 37° C., samples up to 180 min
T1 construct: purchased R & D systems
T1 sequence (P27487 whole entry, species assumed): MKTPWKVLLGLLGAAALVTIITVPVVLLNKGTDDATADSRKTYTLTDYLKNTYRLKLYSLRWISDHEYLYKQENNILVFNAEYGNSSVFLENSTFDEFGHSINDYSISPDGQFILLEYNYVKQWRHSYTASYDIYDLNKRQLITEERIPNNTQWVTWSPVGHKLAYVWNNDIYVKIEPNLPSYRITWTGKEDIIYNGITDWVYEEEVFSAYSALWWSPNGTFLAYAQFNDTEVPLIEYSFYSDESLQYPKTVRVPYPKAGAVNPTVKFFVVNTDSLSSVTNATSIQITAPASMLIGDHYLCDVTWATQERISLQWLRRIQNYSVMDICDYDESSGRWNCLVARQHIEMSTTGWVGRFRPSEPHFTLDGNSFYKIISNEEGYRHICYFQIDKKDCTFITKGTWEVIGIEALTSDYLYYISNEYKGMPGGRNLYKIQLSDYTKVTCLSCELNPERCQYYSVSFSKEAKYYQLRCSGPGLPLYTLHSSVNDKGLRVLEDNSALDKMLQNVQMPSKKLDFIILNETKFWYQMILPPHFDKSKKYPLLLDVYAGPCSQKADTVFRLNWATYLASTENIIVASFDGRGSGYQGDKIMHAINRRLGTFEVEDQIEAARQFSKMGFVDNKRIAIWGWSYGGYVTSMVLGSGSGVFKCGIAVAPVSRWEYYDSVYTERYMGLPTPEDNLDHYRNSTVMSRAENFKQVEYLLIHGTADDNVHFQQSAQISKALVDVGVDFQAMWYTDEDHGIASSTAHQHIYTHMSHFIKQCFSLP
Method: The peptides are incubated in vitro in buffer with DPP-IV, samples are taken at regular intervals, the DPP-IV enzyme is inactivated to stop further degradation, and the amount of non-degraded peptide in the samples is determined using LC-MS.
Buffer A is a HEPES buffer (Gibco by Life Science, NY, USA) to which 0.005% (v/v) Tween20® Sigma-Aldrich, USA) and 0.001% (w/v) BSA (Sigma-Aldrich, USA) has been added and pH was adjusted to 7.4.
LC-MS was performed on a setup consisting of Waters Acquity UPLC system and Maxis 4G from Bruker Daltonics. […] Gradient: Linear 5%-70% mobile phase B during 8 min at 0.3 ml/min. MS was conducted in positive ionisation mode by electrospray ionisation from m/z ionisation mode and scan from m/z 300-1800.
The reactions were terminated by addition of 6 volumes of ethanol containing 1% (v/v) TFA (Biosolve BV, The Netherlands) and internal standard. The samples were analysed by LC-MS for the respective non-degraded peptide. Data was plotted according to 1st order kinetics (by GraphPad Prism) and the half-lives (T1/2) were calculated by the software and reported in minutes.

[2] = molecular target: T2, human GLP-1 receptor (Homo sapiens, UniProt P43220); assay: GLP-1 receptor binding, competitive binding assay with 125I-GLP-1 on isolated membranes (SPA)
T2 construct: expressed in transfected cells; host or cells: membranes of BHK cells (parent BHKTS13), clone FCW467-12A
T2 sequence (P43220 24-463): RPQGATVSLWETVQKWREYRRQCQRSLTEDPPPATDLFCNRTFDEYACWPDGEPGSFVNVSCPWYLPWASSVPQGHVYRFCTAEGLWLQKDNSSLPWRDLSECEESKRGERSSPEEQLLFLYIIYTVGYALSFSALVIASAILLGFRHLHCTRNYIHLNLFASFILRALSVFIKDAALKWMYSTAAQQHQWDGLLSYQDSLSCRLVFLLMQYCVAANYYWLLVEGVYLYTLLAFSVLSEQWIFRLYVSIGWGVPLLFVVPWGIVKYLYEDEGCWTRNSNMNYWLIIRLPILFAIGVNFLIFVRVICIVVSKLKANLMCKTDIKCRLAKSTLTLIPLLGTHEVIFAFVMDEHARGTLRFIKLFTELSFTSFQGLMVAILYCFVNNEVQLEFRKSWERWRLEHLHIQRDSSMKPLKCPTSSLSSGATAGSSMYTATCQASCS
Method: The receptor binding is reported as the concentration at which half of the labelled ligand is displaced from the receptor, the IC50 value.
Buffer 1 consisted of 20 mM Na-HEPES plus 10 mM EDTA and pH was adjusted to 7.4. Buffer 2 consisted of 20 mM Na-HEPES plus 0.1 mM EDTA and pH was adjusted to 7.4. Assay buffer consisted of 50 mM HEPES supplemented with 5 mM EGTA, 5 mM MgCl2, 0.005% w/v Tween 20 and pH was adjusted to 7.4. An 8% albumin stock consisted of HSA dissolved at 8% (w/v) in assay buffer. An 0.02% albumin stock consisted of HSA dissolved at 0.02% (w/v) in assay buffer.
To make a membrane preparation the cells were grown to approximately 80% confluence. The cells were washed twice in phosphate-buffered saline and harvested. The cells were pelleted using a brief centrifugation and the cell pellet was kept on ice. The cell pellet was homogenised with ULTRA-THURRAX™ dispersing instrument for 20-30 seconds in a suitable amount of buffer 1 (e.g., 10 ml). The homogenate was centrifuged for 15 minutes. The pellet was re-suspended (homogenised) in 10 ml buffer 2 and centrifuged. This step was repeated once more. The resulting pellet was re-suspended in buffer 2 and the protein concentration was determined. The membranes were aliquoted and stored at minus 80° C.
For the receptor binding assay in the presence of low HSA (0.005% (w/v)) 50 μl of the assay buffer was added to each well of an assay plate. Assay continued with step 3.
For the receptor binding assay in the presence of high HSA (2% (w/v)) 50 μl of the 8% (w/v) albumin stock was added to each well of an assay plate. Assay continued with step 3.
Cell membrane aliquots were thawed and diluted to their working concentration. Fifty μl were added to each well in the assay plate.
WGA SPA beads were suspended in assay buffer at 20 mg/ml. The suspension was diluted to 10 mg/ml in assay buffer just prior to addition to the assay plate. Fifty μl were added to each well in the assay plate.
A 25 μl aliquot was reserved for measuring total counts/well.
The assay plate was incubated for 2 h at 30° C.
The assay plate was centrifuged for 10 min.
The assay plate was read in a Packard TopCount NXT instrument.
Individual replicates were analysed using non-linear regression in GraphPad Prism. IC50 values were calculated by the software and reported in nM. A minimum of two replicates was measured for each sample. The reported values are averages of all of the measured values for each compound.

[3] = molecular target: T2, human GLP-1 receptor; assay: In vitro potency, CRE luciferase reporter gene assay in BHK cells expressing the human GLP-1 receptor; type: cell-based; conditions: 3 h, 0% HSA, average of at least three replicates
Method: When assay incubation is completed the luciferase substrate (luciferin) is added and the enzyme converts luciferin to oxyluciferin to produce bioluminescence. The luminescence is measured as the readout for the assay.
The cells were cultured at 5% CO2 in cell culture medium. They were aliquoted and stored in liquid nitrogen. Before each assay an aliquot was taken up and washed twice in PBS before being suspended at the desired concentration in the assay specific buffer. For 96-well plates the suspension was made to give a final concentration of 5×10^3 cells/well.
Assay medium consisted of DMEM w/o phenol red, 10 mM Hepes and 1× Glutamax. The assay buffer consisted of 2% w/v ovalbumin and 0.2% v/v Pluronic F-68 in assay medium.
3) Cells were counted and adjusted to 5×10^3 cells/50 μl (1×10^5 cells/ml) in assay medium. A 50 μl aliquot of cells was transferred to each well in the assay plate.
4) Stocks of the test compounds and reference compounds were diluted to a concentration of 0.2 μM in assay buffer. […] Compounds were tested at the following final concentrations: 1×10^−7 M, 1×10^−8 M; 1×10^−9 M, 1×10^−10 M, 1×10^−11 M, 1×10^−12 M, 1×10^−13 M, and 1×10^−14 M. 6) The assay plate was incubated for 3 h in a 5% CO2 incubator at 37° C. […] 8) A 100 μl aliquot of steadylite plus reagent was added to each well of the assay plate. 9) Each assay plate was covered with aluminum foil to protect it from light and shaken for 30 min at room temperature. 10) Each assay plate was read in a BioTek Synergy 2 Multi-Mode Reader. Calculations and Results
The data from the BioTek Synergy 2 Multi-Mode Reader were transferred to GraphPad Prism software. The software performs a non-linear regression (log(agonist) vs. response (three parameters)).
A minimum of three replicates were measured for each sample. The reported EC50 values are averages of the measured values for each compound.

Structure (SMILES) | degradation by DPP-IV in vitro (in words) [1] | IC50 ([2]; high HSA (2.0% (w/v) final assay concentration), read-out: GLP-1 receptor binding High HSA IC50) | IC50 ([2]; low HSA (max. 0.001% (w/v) final assay concentration), read-out: GLP-1 receptor binding Low HSA IC50) | EC50 [3]
CC[C@H](C)[C@H](NC(=O)[C@H](Cc1ccccc1)NC(=O)[C@H](CCC(=O)O)NC(=O)[C@H](CCCCN)NC(=O)[C@H](C)NC(=O)[C@H](C)NC(=O)[C@H](CCC(N)=O)NC(=O)CNC(=O)[C@H](CCC(=O)O)NC(=O)[C@H](CC(C)C)NC(=O)[C@H](Cc1ccc(O)cc1)NC(=O)[C@H](CO)NC(=O)[C@H](CO)NC(=O)[C@@H](NC(=O)[C@H](CC(=O)O)NC(=O)[C@H](CO)NC(=O)[C@@H](NC(=O)[C@H](Cc1ccccc1)NC(=O)[C@@H](NC(=O)CNC(=O)[C@H](CCC(=O)O)NC(=O)[C@H](Cc1c[nH]c2ccccc12)NC(=O)[C@@H](N)Cc1c[nH]cn1)[C@@H](C)O)[C@@H](C)O)C(C)C)C(=O)N[C@@H](C)C(=O)N[C@@H](Cc1c[nH]c2ccccc12)C(=O)N[C@@H](CC(C)C)C(=O)N[C@H](C(=O)N[C@@H](CCCCN)C(=O)NCC(=O)N[C@@H](CCCNC(=N)N)C(=O)NCC(=O)O)C(C)C [Example D, [Trp8]-GLP-1-(7-37)-Peptide] | no degradation at all was observed |  |  | 
CC[C@H](C)[C@H](NC(=O)[C@H](Cc1ccccc1)NC(=O)[C@H](CCC(=O)O)NC(=O)[C@H](CCCNC(=N)N)NC(=O)[C@H](C)NC(=O)[C@H](C)NC(=O)[C@H](CCC(N)=O)NC(=O)[C@H](CCC(=O)O)NC(=O)[C@H](CCC(=O)O)NC(=O)[C@H](CC(C)C)NC(=O)[C@H](Cc1ccc(O)cc1)NC(=O)[C@H](CO)NC(=O)[C@H](CO)NC(=O)[C@@H](NC(=O)[C@H](CC(=O)O)NC(=O)[C@H](CO)NC(=O)[C@@H](NC(=O)[C@H](Cc1ccccc1)NC(=O)[C@@H](NC(=O)CNC(=O)[C@H](CCC(=O)O)NC(=O)C(C)(C)NC(=O)[C@@H](N)Cc1c[nH]cn1)[C@@H](C)O)[C@@H](C)O)C(C)C)C(=O)N[C@@H](C)C(=O)N[C@@H](Cc1c[nH]c2ccccc12)C(=O)N[C@@H](CC(C)C)C(=O)N[C@H](C(=O)N[C@@H](CCCNC(=N)N)C(=O)NCC(=O)N[C@@H](CCCNC(=N)N)C(=O)N[C@@H](CCCCNC(=O)COCCOCCNC(=O)COCCOCCNC(=O)CN(CCCNC(=O)COCCOCCNC(=O)COCCOCCNC(=O)COCCOCCNC(=O)COCCOCCNC(=O)CC[C@H](NC(=O)[C@H]1CC[C@H](CNC(=O)CCCCCCCCCCCCCCCCCCC(=O)O)CC1)C(=O)O)CCCNC(=O)COCCOCCNC(=O)COCCOCCNC(=O)COCCOCCNC(=O)COCCOCCNC(=O)CC[C@H](NC(=O)[C@H]1CC[C@H](CNC(=O)CCCCCCCCCCCCCCCCCCC(=O)O)CC1)C(=O)O)C(=O)O)C(C)C [Comparative 13A] |  | 35.4 nM | 0.383 nM | 0.0147 nM
